Reference: US6828473B2, “Modulation of PDE11A activity” (Pfizer Inc., priority 2000, dated 2004)
Counter-ions that a name gives are not always drawn.

Columns and labels:
[1] = system: pre-ejaculated epididymal murine spermatozoa; assay: Sperm capacitation measured with chlorotetracycline (CTC); type: cell-based, mouse; settings: for number of capacitated sperm: P<0.001
Experimental: The extent of capacitation was measured using chlorotetracycline (CTC) and the degree of capacitation was assessed in control and adenosine-5′-triphosphate (ATP)-treated samples. All data is expressed as mean+s.e.mean, n=3, ***=P<0.001, Student's t-test).
Sperm suspensions were prepared by releasing the contents of mouse epididymides from 3 PDE11 knockout (KO) and 3 wild type (WT) mice into Tyrodes media. The extent of capacitation was measured using chlorotetracycline (CTC), 750 μM for 15 min at 37° C. The patterns of CTC fluorescence were observed under microscopy (Reference: Fraser, L. R. & Herod, J. E. Expression of capacitation-dependent changes in chlortetracycline fluorescence patterns in mouse spermatozoa requires a suitable glycolysable substrate. J. Reprod. Fert., 1990; 88(2): 611-21). Patterns reflected the functional state of spermatozoa, i.e. capacitated, uncapacitated and acrosome loss.

[2] = system: recombinant human PDE7; assay: PDE inhibition SPA assay, PDE7; type: biochemical; settings: geometric mean of at least 3 determinations; substrate <= 1/3 Km
[3] = biological target: T1, PDE6 isolated from bovine retina (Bos taurus, UniProt P11541+P23439); assay: PDE inhibition SPA assay, PDE6; type: biochemical
T1 construct: PDE6 was isolated from bovine retina; from tissue; host or cells: bovine retina
T1 sequence (P11541 2-856 limits assumed): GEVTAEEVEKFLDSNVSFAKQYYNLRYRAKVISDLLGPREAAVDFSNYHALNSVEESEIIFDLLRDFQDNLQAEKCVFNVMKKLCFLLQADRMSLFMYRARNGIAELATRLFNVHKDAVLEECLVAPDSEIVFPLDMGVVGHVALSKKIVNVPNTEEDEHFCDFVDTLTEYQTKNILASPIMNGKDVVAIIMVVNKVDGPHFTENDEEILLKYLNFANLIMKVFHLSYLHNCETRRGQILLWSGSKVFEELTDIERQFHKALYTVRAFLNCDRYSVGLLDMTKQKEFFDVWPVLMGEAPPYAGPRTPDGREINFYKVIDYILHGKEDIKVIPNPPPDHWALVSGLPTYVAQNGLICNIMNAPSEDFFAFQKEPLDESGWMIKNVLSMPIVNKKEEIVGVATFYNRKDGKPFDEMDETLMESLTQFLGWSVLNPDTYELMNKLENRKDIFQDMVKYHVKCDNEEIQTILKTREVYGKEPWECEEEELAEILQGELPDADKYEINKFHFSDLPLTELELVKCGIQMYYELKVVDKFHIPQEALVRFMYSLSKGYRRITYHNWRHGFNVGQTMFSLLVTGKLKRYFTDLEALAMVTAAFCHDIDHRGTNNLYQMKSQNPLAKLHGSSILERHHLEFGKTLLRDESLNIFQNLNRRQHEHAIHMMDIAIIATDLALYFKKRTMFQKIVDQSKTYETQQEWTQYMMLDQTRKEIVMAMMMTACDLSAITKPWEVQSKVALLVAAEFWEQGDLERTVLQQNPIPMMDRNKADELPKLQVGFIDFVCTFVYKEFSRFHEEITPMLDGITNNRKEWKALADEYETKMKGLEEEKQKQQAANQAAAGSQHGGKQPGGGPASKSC
T1 sequence (P23439 2-850 limits assumed): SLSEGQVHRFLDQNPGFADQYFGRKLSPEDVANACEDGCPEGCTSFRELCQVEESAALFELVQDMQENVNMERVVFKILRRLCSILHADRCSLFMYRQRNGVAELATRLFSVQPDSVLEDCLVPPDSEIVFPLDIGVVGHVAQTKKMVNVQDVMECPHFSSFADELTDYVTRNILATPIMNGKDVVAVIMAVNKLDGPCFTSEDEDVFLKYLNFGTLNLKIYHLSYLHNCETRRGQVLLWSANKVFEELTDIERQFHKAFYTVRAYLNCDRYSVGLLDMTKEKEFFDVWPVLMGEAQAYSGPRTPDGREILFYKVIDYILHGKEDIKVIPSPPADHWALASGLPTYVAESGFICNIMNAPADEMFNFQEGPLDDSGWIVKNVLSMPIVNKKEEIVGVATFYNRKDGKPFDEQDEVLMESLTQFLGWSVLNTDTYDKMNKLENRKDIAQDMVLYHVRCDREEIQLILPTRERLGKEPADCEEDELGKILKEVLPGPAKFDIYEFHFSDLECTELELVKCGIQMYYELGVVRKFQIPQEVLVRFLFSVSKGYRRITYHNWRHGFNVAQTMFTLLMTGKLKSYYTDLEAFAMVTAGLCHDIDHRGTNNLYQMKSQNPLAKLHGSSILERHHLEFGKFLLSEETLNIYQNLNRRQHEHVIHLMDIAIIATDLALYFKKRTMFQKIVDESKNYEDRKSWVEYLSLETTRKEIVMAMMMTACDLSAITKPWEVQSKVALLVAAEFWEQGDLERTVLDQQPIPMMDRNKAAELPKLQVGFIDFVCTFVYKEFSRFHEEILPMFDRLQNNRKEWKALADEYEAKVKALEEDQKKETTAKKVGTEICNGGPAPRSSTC

[4] = system: recombinant human PDE8; assay: PDE inhibition SPA assay, PDE8; type: biochemical; settings: geometric mean of at least 3 determinations; substrate <= 1/3 Km

Row | SMILES | number of capacitated murine spermatozoa ([1]; 1 hr incubation, both PDE11 KO and WT samples, concentration not given) | number of capacitated sperm ([1]; ATP 1.0 mM, spermatozoa obtained from PDE11 KO mice only) | number of capacitated sperm ([1]; ATP 2.5 mM, 1 hr incubation, all murine spermatozoa samples (PDE11 KO and WT)) | IC50 [2] | IC50 [3] | IC50 [4]
1 | Nc1ncnc2c1ncn2[C@@H]1O[C@H](COP(=O)(O)OP(=O)(O)OP(=O)(O)O)[C@@H](O)[C@H]1O [ATP, adenosine-5′-triphosphate] | significantly increased | significantly increased | significantly increased | – | – | –
2 | CCCc1nn(C)c2c(=O)[nH]c(-c3cc(S(=O)(=O)N4CCN(C)CC4)ccc3OCC)nc12 [Sildenafil, sildenafil] | – | – | – | 19.7 µM | – | –
3 | O=C(O)C1CCN(c2nc(NCc3ccc4c(c3)OCO4)c3cc(Cl)ccc3n2)CC1 [UK-227,786 (E4021), 1-[4-[(1,3-benzodioxol-5-ylmethyl)amino]-6-chloro-2-quinazolinyl]-4-piperidinecarboxylic acid, monohydrochloride] | – | – | – | > 100 µM | 4.7 µM | > 100 µM
4 | CN1CC(=O)N2[C@H](c3ccc4c(c3)OCO4)c3[nH]c4ccccc4c3C[C@@H]2C1=O [UK-336,017 (IC351), (6R, 12aR)-6-(1,3-benzodioxol-5-yl)-2,3,6,7,12,12a-hexahydro-2-methyl-pyrazino[1′,2′:1,6]pyrido[3,4-b]indole-1,4-dione] | – | – | – | > 100 µM | – | > 100 µM
